The record followed here is ChEMBL document CHEMBL1142630, “The application of HPLC with on-line coupled UV/MS-biochemical detection for isolation of an acetylcholinesterase inhibitor from narcissus 'Sir Winston Churchill'” (J Nat Prod, 2000).

In general, IC50 refers to the concentration at which inhibition is half-maximal.

In this experiment the target is Acetylcholinesterase (Homo sapiens, UniProt P22303). The experiment in a line: Inhibition of AChE by microplate assay.

Molecules are shown by their SMILES.

Chain of Acetylcholinesterase (P22303 whole entry): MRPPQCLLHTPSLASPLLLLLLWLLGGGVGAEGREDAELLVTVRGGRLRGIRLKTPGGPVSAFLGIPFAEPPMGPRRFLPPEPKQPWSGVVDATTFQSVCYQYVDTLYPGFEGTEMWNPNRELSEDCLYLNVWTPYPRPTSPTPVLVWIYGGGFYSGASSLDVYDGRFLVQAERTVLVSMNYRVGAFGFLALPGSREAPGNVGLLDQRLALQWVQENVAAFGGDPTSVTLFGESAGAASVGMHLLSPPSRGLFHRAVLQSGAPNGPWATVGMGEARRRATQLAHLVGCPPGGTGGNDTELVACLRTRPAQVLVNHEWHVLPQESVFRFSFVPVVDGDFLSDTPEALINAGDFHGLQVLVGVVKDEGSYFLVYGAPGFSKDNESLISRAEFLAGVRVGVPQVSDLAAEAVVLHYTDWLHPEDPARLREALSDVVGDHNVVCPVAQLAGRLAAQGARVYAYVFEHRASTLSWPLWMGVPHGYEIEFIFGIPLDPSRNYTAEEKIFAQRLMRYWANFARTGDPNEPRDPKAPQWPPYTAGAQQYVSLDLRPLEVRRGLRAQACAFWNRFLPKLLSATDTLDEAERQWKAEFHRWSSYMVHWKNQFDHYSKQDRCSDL

`CO[C@@H]1[C@@H](O)[C@H]2c3cc4c(cc3CN3CC=C([C@H]1O)[C@H]23)OCO4` [UNGIMINORINE]: the IC50 amounted to 86 µM.
